Measured values as given in PubChem BioAssay (NCI).
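Cells were grown in 96-well plates and exposed to each compound for 48 hours at five concentrations; endpoints were interpolated linearly between bracketing concentrations, or set to the highest concentration if not reached. The concentration for 50% growth inhibition is given as GI50. TGI marks complete inhibition of growth.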

Tests used:
Experiment in all cases: NCI-60 cell line screen, 48 h
COLO 205 colon = system: COLO 205 colon
IGROV1 ovarian = system: IGROV1 ovarian
MOLT-4 leukemia = system: MOLT-4 leukemia
PC-3 prostate = system: PC-3 prostate
SF-268 CNS = system: SF-268 CNS
SK-OV-3 ovarian = system: SK-OV-3 ovarian
SR leukemia = system: SR leukemia
T-47D breast = system: T-47D breast
U251 CNS = system: U251 CNS
NCI-H226 lung = system: NCI-H226 lung

SMILES | TGI (COLO 205 colon) [µM] | TGI (IGROV1 ovarian) [µM] | TGI (MOLT-4 leukemia) [µM] | TGI (PC-3 prostate) [µM] | TGI (SF-268 CNS) [µM] | TGI (SK-OV-3 ovarian) [µM] | TGI (SR leukemia) [µM] | TGI (T-47D breast) [µM] | TGI (U251 CNS) [µM] | GI50 (COLO 205 colon) [µM] | GI50 (IGROV1 ovarian) [µM] | GI50 (MOLT-4 leukemia) [µM] | GI50 (PC-3 prostate) [µM] | GI50 (SF-268 CNS) [µM] | GI50 (SK-OV-3 ovarian) [µM] | GI50 (SR leukemia) [µM] | GI50 (T-47D breast) [µM] | GI50 (U251 CNS) [µM] | TGI (NCI-H226 lung) [µM] | GI50 (NCI-H226 lung) [µM]
O=C(CCl)N1CCN(c2ccccc2)CC1 | 40 | 51.7 | > 100 | 59.4 | 33 | > 100 | > 100 | 45.8 | 34.4 | – | – | – | – | – | – | – | – | – | – | –
C=C1CC[C@@](C)(c2cc(Br)c(C)cc2OC(C)=O)[C@H]1C | 31.3 | 29.4 | 24.8 | 24.2 | 28.3 | 29.9 | 27.1 | 27.8 | 29.7 | 17.6 | 13.2 | 9.99 | 11.1 | 13.2 | 16.4 | 11.2 | 10.7 | 15.2 | – | –
O=C1CCC2(c3ccccc3)OCC([C@@H](O)c3ccccc3)N12 (stereo not given in full) | > 100 | > 100 | – | – | > 100 | – | > 100 | – | > 100 | – | – | – | – | – | – | – | – | – | – | –
Cc1[nH]c2ccccc2c1/C=C/c1c(C)[nH]c2ccccc12 | – | > 100 | > 100 | – | – | > 100 | – | – | > 100 | – | – | – | – | – | – | – | – | – | > 100 | –
Nc1nc2c(ncn2C2OC(CO)C(O)C2O)c(=O)o1 (stereo not given) | > 100 | > 100 | – | > 100 | > 100 | > 100 | > 100 | – | > 100 | – | – | – | – | – | – | – | – | – | > 100 | –
Cc1cc2c3c(nc4ccccc42)C(=O)c2cccnc2-c3n1 | 2.45 | 0.383 | 5.69 | 3.04 | > 19.9 | 1.07 | – | 4.13 | 6.93 | 1.13 | 0.0658 | 0.47 | 0.304 | 0.786 | 0.25 | – | 0.749 | 0.413 | 3.26 | 0.942
CC1CN1c1c(C(=O)/C=C/c2ccc(F)cc2)c(-c2ccccc2)nn(C)c1=O (stereo not given) | 33 | 40.2 | 58.2 | – | 30.4 | – | – | – | 28.9 | – | – | – | – | – | – | – | – | – | 25.3 | –
Cc1cc(C)c([O-])c(-[n+]2c(-c3ccccc3)cc(-c3ccccc3)cc2-c2ccccc2)c1 | 12.2 | 19.9 | > 100 | – | 21.5 | 27.2 | 11.8 | – | 14.9 | – | – | – | – | – | – | – | – | – | 24.9 | –
COc1ccc(N=Nc2c(-c3ccccc3)nn(C(=O)CC(=O)Nc3ccc(OC)cc3)c2-c2ccccc2)cc1 | > 100 | > 100 | > 100 | – | > 100 | > 100 | – | – | > 100 | – | – | – | – | – | – | – | – | – | > 100 | –
COC1(OC)CCC2(C)OC(c3ccccc3)C1O2 (stereo not given) | > 100 | > 100 | > 100 | – | > 100 | > 100 | > 100 | – | > 100 | – | – | – | – | – | – | – | – | – | > 100 | –
N#C/C(=C\c1ccc(O)c(O)c1)C(=O)NCc1cccc(C(F)(F)F)c1 | 76.6 | – | 41.2 | > 100 | 42.1 | 75.6 | – | 84.5 | 38.4 | 24.4 | – | 5.65 | 19.7 | 13.7 | 24.1 | – | 13.3 | 6.22 | – | –
COc1cc2c3c(n(CCCNCCCCN)c(=O)c2cc1OC)-c1cc2c(cc1C3=O)OCO2 | > 46 | > 100 | > 19.6 | 26 | 10.3 | > 46.6 | – | 27.1 | 6.54 | 6.02 | > 21.2 | – | 4.51 | 3.1 | 9.15 | – | 3.11 | 0.234 | 7.44 | 1.6
CC(=O)CCC[C@@H](C)[C@@H]1O[C@H]([C@@]2(C)CCC(=O)O2)CC2[C@H]1OC(=O)C21CC1 (stereo not given in full) | > 100 | > 100 | > 100 | > 100 | > 100 | > 100 | > 100 | > 100 | > 100 | > 100 | 55 | 75.5 | 52.5 | > 100 | > 100 | 29.4 | > 100 | 91.3 | – | –
COC(=O)C1=C(C)N(NC(N)=O)C2(N)N(NC(N)=O)C(C)=C(C(=O)OC)C12C#N (stereo not given) | > 100 | > 100 | > 100 | – | > 100 | > 100 | – | – | > 100 | – | – | – | – | – | – | – | – | – | > 100 | –
CN(C)CC1CCCC/C1=N\OC(=O)c1ccccc1 (stereo not given) | > 100 | > 100 | > 100 | – | > 100 | > 100 | > 100 | – | > 100 | – | – | – | – | – | – | – | – | – | > 100 | –
COc1ccc(C(=O)C(c2ccc(OC)cc2)C2(O)C(=O)Nc3c(Cl)cc(Cl)cc32)cc1 (stereo not given) | 74.3 | – | 36.2 | – | > 100 | 90.6 | – | – | > 100 | – | – | – | – | – | – | – | – | – | 36.5 | –
CC(C)(C)c1cc(Cc2ccc(S(C)(=O)=O)cc2)c(O)c(C(C)(C)C)c1 | – | 28.3 | 27.4 | – | 25.9 | 36.2 | 29.5 | – | 28.7 | – | – | – | – | – | – | – | – | – | – | –
CC(=O)NNc1nc(C)c(C(=O)/C=C/c2ccc(N(C)C)cc2)s1 | > 100 | > 100 | > 100 | – | > 100 | > 100 | – | – | > 100 | – | – | – | – | – | – | – | – | – | > 100 | –
O=C1CC[C@@H](S(=O)(=O)c2ccccc2)[C@H](/C=C/c2ccccc2)O1 | > 100 | > 100 | > 100 | – | – | > 100 | > 100 | – | > 100 | – | – | – | – | – | – | – | – | – | > 100 | –
CCN(CC)CCN1C(=O)c2c(c3c4cccc(Cl)c4n(C4OC(CO)C(OC)C(O)C4O)c3c3[nH]c4c(Cl)cccc4c23)C1=O (stereo not given) | – | – | – | – | – | – | – | 2.26 | – | – | – | < 0.0001 | – | < 0.0001 | – | < 0.0001 | – | < 0.0001 | – | –
COc1cc(C(=O)/C=C/c2cccnc2Nc2ccc(Cl)cc2)cc(OC)c1OC | 3.47 | 4.78 | 10.5 | 3.33 | 3.19 | 3.29 | – | 3.24 | 2.54 | 1.83 | 2.24 | 2.55 | 1.44 | 1.72 | 1.72 | – | 1.42 | 1.25 | 2.45 | 1.16
